# Source: US12053459B2, “CDK2 inhibitors and methods of using the same” (Cedilla Therapeutics, Inc., priority 2021, dated 2024)
# Columns and labels:
# CDK2/Cyclin E1(14-475) = CDK2/Cyclin E1(14-475) (Homo sapiens, UniProt P24941); assay: Caliper LabChip EZ Reader mobility shift assay, inhibition of CDK2/Cyclin E1 activity; assay type: biochemical; settings: class symbols A-D
# In short: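 Mobility-shift readout of fluorescent peptide (1.5 μM final) phosphorylation by 2.5 nM CDK2/Cyclin E1(14-475) at 100 μM ATP, pH 7.5. Compounds pre-incubated 30 min with enzyme before substrate addition; 100-min reaction halted by EDTA, normalized % activity fitted to four-parameter curve for IC50.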
# Kuramochi cells = assay: BrdU cell proliferation assay (colorimetric ELISA), Kuramochi cells; assay type: cell-based; settings: class symbols A-D
# In short: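 Proliferation was read as BrdU incorporation: a 1 h pulse, then fixation and peroxidase-antibody ELISA at 450 nm, with values normalized to DMSO after empty-well subtraction. Treatment lasted 4 days on Kuramochi cells seeded at 2,000/well, using four 3-fold compound dilutions from 10 mM stocks. RB^KO Kuramochi cells were run in parallel for specificity.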
Structure (SMILES),IC50 (CDK2/Cyclin E1(14-475)),IC50 (Kuramochi cells)
CNC(=O)[C@@H](CCCC(C)C)NC(=O)C1CN(C(=O)Cc2c[nH]c3cc(Cl)ccc23)CC2CN(C(=O)c3ccc(OC(C)C)c(OC)c3)CC21 (stereo partly shown) [I-114],> 10 µM,> 10 µM
CNC(=O)[C@H](CCCc1ccccc1)NC(=O)C1CN(C(=O)c2ccc(OC)nn2)CC2CN(C(=O)c3ccc(OC(C)C)c(OC)c3)CC21 (stereo partly shown) [I-216],> 10 µM,> 10 µM
CNC(=O)[C@H](CCCc1ccccc1)NC(=O)C1CN(C(=O)Cc2c[nH]c3cccc(OC)c23)CC2CN(C(=O)c3ccc(OC(C)C)c(OC)c3)CC21 (stereo partly shown) [I-176],> 10 µM,> 10 µM
"CNC(=O)[C@H](CCCc1ccccc1)NC(=O)C1CN(C(=O)Cc2ccccc2)CC2CN(C(=O)c3ccc(OC(C)C)c(OC)c3)CC21 (stereo partly drawn) [I-154, 2-(4-isopropoxy-3-methoxybenzoyl)-N—((S)-1-(methylamino)-1-oxo-5-phenylpentan-2-yl)-5-(2-phenylacetyl)octahydro-1H-pyrrolo[3,4-c]pyridine-7-carboxamide]",> 10 µM,> 10 µM
CNC(=O)[C@H](CCCc1ccccc1)NC(=O)C1CN(C(=O)Cc2c[nH]c3cc(Cl)ccc23)CC2CN(C(=O)c3ccc(OCC(C)C)cc3)CC21 (stereo partly shown) [I-7],0.5 to 5 µM,5 to 10 µM
"CNC(=O)[C@H](CCCc1ccccc1)NC(=O)C1CN(C(=O)Cc2c[nH]c3cc(Cl)ccc23)CC2CN(C(=O)c3ccc4c(c3)n(C)c(=O)n4C(C)C)CC21 (single isomer, unassigned) [I-86]",> 10 µM,> 10 µM
"CNC(=O)[C@H](CCCc1ccccc1)NC(=O)C1CN(C(=O)Cc2c[nH]c3cc(Cl)ccc23)CC2CN(C(=O)c3ccc4c(c3)CC(=O)N4)CC21 (single isomer, unassigned) [I-23]",> 10 µM,> 10 µM
CNC(=O)[C@H](CCCc1ccccc1)NC(=O)C1CN(C(=O)Cc2c[nH]c3cc(Cl)ccc23)CC2CN(C(=O)c3ccc(-c4cncnc4)cc3)CC21 (stereo partly shown) [I-59],> 10 µM,> 10 µM
CNC(=O)[C@H](CCCc1ccccc1)NC(=O)C1CN(C(=O)Cc2c[nH]c3c(OC)cccc23)CC2CN(C(=O)c3ccc(OC(C)C)c(OC)c3)CC21 (stereo partly shown) [I-229],> 10 µM,> 10 µM
CNC(=O)[C@H](CCCc1ccccc1)NC(=O)C1CN(C(=O)Cc2coc3cc(Cl)ccc23)CC2CN(C(=O)c3ccc(OC(C)C)c(OC)c3)CC21 (stereo partly shown) [I-204],0.5 to 5 µM,> 10 µM
CNC(=O)[C@H](CCCc1ccccc1)NC(=O)C1CN(C(=O)c2c[nH]c3cc(Cl)ccc23)CC2CN(C(=O)c3ccc(OC(C)C)c(OC)c3)CC21 (stereo partly shown) [I-172],> 10 µM,> 10 µM
CNC(=O)[C@H](CCCc1ccccc1)NC(=O)C1CN(C(=O)Cc2c[nH]c3cc(F)ccc23)CC2CN(C(=O)c3ccc(OC(C)C)c(OC)c3)CC21 (stereo partly shown) [I-174],0.5 to 5 µM,> 10 µM
"CNC(=O)[C@H](Cc1c[nH]c2ccccc12)NC(=O)C1CN(C(=O)Cc2c[nH]c3cc(Cl)ccc23)CC2CN(C(=O)c3ccc(OC(C)C)c(OC)c3)CC21 (single isomer, unassigned) [I-111]",≤ 0.5 µM,> 10 µM
CNC(=O)[C@H](CCCc1ccccc1)NC(=O)C1CN(C(=O)c2cncs2)CC2CN(C(=O)c3ccc(OC(C)C)c(OC)c3)CC21 (stereo partly shown) [I-206],> 10 µM,> 10 µM
CNC(=O)[C@@H](NC(=O)C1CN(C(=O)Cc2c[nH]c3cc(Cl)ccc23)CC2CN(C(=O)c3ccc(OC(C)C)c(OC)c3)CC21)[C@H](C)OCC1CCCCC1 (stereo partly shown) [I-107],≤ 0.5 µM,0.5 to 5 µM
CNC(=O)[C@@H](CCCc1ccc(C(F)(F)F)cc1)NC(=O)C1CN(C(=O)Cc2c[nH]c3cc(Cl)ccc23)CC2CN(C(=O)c3ccc(OC(C)C)c(OC)c3)CC21 (stereo partly shown) [I-134],> 10 µM,> 10 µM
CNC(=O)[C@H](CCCc1ccccc1)NC(=O)C1CN(C(=O)c2ccc3cccn3c2)CC2CN(C(=O)c3ccc(OC(C)C)c(OC)c3)CC21 (stereo partly shown) [I-199],> 10 µM,> 10 µM
CNC(=O)[C@H](CCCc1ccccc1)NC(=O)C1CN(C(=O)Cc2c[nH]c3cc(Cl)ccc23)CC2CN(C(=O)c3cc(C4CC4)[nH]n3)CC21 (stereo partly shown) [I-30],> 10 µM,> 10 µM
CNC(=O)[C@H](CCCc1ccccc1)NC(=O)C1CN(C(=O)c2[nH]ccc2C)CC2CN(C(=O)c3ccc(OC(C)C)c(OC)c3)CC21 (stereo partly shown) [I-171],> 10 µM,> 10 µM
CNC(=O)[C@H](CCCc1ccccc1)NC(=O)C1CN(C(=O)Cc2c[nH]c3cc(Cl)ccc23)CC2CN(C(=O)c3ncccn3)CC21 (stereo partly shown) [I-57],> 10 µM,> 10 µM
CNC(=O)[C@H](CCCc1ccccc1)NC(=O)C1CN(C(=O)Cc2c[nH]c3cc(Cl)ccc23)CC2CN(C(=O)c3ccc(C#N)cn3)CC21 (stereo partly shown) [I-15],> 10 µM,> 10 µM
CNC(=O)[C@H](CCCc1ccccc1)NC(=O)C1CN(C(=O)Cc2c[nH]c3cc(Cl)ccc23)CC2CN(C(=O)c3ccc4cnccc4c3)CC21 (stereo partly shown) [I-18],> 10 µM,> 10 µM
CNC(=O)[C@H](CCCc1ccccc1)NC(=O)C1CN(C(=O)Cc2c[nH]c3cc(Cl)ccc23)CC2CN(C(=O)c3cnc(OC)cn3)CC21 (stereo partly shown) [I-16],> 10 µM,> 10 µM
"CNC(=O)[C@H](CCCc1ccccc1)NC(=O)C1CN(C(=O)c2coc(Cl)n2)CC2CN(C(=O)c3ccc(OC(C)C)c(OC)c3)CC21 (single isomer, unassigned) [I-233]",> 10 µM,> 10 µM
CNC(=O)[C@H](CCCc1ccccc1)NC(=O)C1CN(C(=O)Cc2c[nH]c3cc(Cl)ccc23)CC2CN(C(=O)c3n[nH]c4ccccc34)CC21 (stereo partly shown) [I-28],> 10 µM,> 10 µM
CNC(=O)[C@H](CCCc1ccccn1)NC(=O)C1CN(C(=O)Cc2c[nH]c3cc(Cl)ccc23)CC2CN(C(=O)c3ccc(OC(C)C)c(OC)c3)CC21 (stereo partly shown) [I-91],0.5 to 5 µM,> 10 µM

# More lines, main results first:
IC50 (CDK2/Cyclin E1(14-475)),Structure (SMILES),IC50 (Kuramochi cells)
> 10 µM,CCc1ccc(C(=O)N2CC3CN(C(=O)Cc4c[nH]c5cc(Cl)ccc45)CC(C(=O)N[C@@H](CCCc4ccccc4)C(=O)NC)C3C2)nc1 (stereo partly shown) [I-58],> 10 µM
0.5 to 5 µM,CNC(=O)[C@H](CCCc1ccccc1)NC(=O)C1CN(C(=O)Cc2cn(C)c3cc(Cl)ccc23)CC2CN(C(=O)c3ccc(OC(C)C)c(OC)c3)CC21 (stereo partly shown) [I-225],> 10 µM
> 10 µM,CNC(=O)[C@H](CCCc1ccccc1)NC(=O)C1CN(C(=O)Cc2c[nH]c3cnccc23)CC2CN(C(=O)c3ccc(OC(C)C)c(OC)c3)CC21 (stereo partly shown) [I-212],> 10 µM
0.5 to 5 µM,CNC(=O)[C@@H](NC(=O)C1CN(C(=O)Cc2c[nH]c3cc(Cl)ccc23)CC2CN(C(=O)c3cc(-c4ccccc4)n[nH]3)CC21)[C@H](C)OCc1ccccc1 (stereo partly shown) [I-250],> 10 µM
0.5 to 5 µM,CNC(=O)[C@H](CCCc1ccccc1)NC(=O)C1CN(C(=O)Cc2c(C)[nH]c3ccccc23)CC2CN(C(=O)c3ccc(OC(C)C)c(OC)c3)CC21 (stereo partly shown) [I-201],> 10 µM
> 10 µM,CNC(=O)[C@H](CCCc1ccccc1)NC(=O)C1CN(C(=O)CCc2ccccn2)CC2CN(C(=O)c3ccc(OC(C)C)c(OC)c3)CC21 (stereo partly shown) [I-164],> 10 µM
> 10 µM,"CNC(=O)[C@H](Cc1c[nH]c2ccccc12)NC(=O)C1CN(C(=O)Cc2c[nH]c3cc(Cl)ccc23)CC2CN(C(=O)c3ccc(OC(C)C)c(OC)c3)CC21 (single isomer, unassigned) [I-110]",> 10 µM
0.5 to 5 µM,"COc1cc(C(=O)N2CC3CN(C(=O)Cc4c[nH]c5cc(Cl)ccc45)CC(C(=O)N[C@H](C(=O)NCCCCCNC(=O)OC(C)(C)C)C(C)OCc4ccccc4)C3C2)ccc1OC(C)C (single isomer, unassigned) [I-260]",> 10 µM
0.5 to 5 µM,CNC(=O)[C@H](CCCc1ccccc1)NC(=O)C1CN(C(=O)Cc2c[nH]c3cc(Cl)ccc23)CC2CN(C(=O)c3ccc(OC4CC4)cc3)CC21 (stereo partly shown) [I-6],> 10 µM
> 10 µM,CNC(=O)[C@H](CCCc1ccccc1)NC(=O)C1CN(C(=O)Cc2c[nH]c3cc(Cl)ccc23)CC2CN(C(=O)c3ccc(S(N)(=O)=O)c(OC)c3)CC21 (stereo partly shown) [I-31],> 10 µM
≤ 0.5 µM,"COc1cc(C(=O)N2CC3CN(C(=O)Cc4c[nH]c5cc(Cl)ccc45)CC(C(=O)NCC(=O)N(C)CCCc4ccccc4)C3C2)ccc1OC(C)C (single isomer, unassigned) [I-100]",0.5 to 5 µM
> 10 µM,CNC(=O)[C@H](CCCc1ccccc1)NC(=O)C1CN(C(=O)c2cc(-c3ccccc3)n[nH]2)CC2CN(C(=O)c3ccc(OC(C)C)c(OC)c3)CC21 (stereo partly shown) [I-168],> 10 µM
> 10 µM,CNC(=O)[C@H](CCCc1ccccc1)NC(=O)C1CN(C(=O)Cc2c[nH]c3cccc(C)c23)CC2CN(C(=O)c3ccc(OC(C)C)c(OC)c3)CC21 (stereo partly shown) [I-217],> 10 µM
5 to 10 µM,CNC(=O)[C@H](CCCc1cccc(O)c1)NC(=O)C1CN(C(=O)Cc2c[nH]c3cc(Cl)ccc23)CC2CN(C(=O)c3ccc(OC(C)C)c(OC)c3)CC21 (stereo partly shown) [I-128],0.5 to 5 µM
0.5 to 5 µM,COc1cc(C(=O)N2CC3CN(C(=O)Cc4c[nH]c5cc(Cl)ccc45)CC(C(=O)N[C@@H](CCCc4ccccc4)C(N)=O)C3C2)ccc1OC(C)C (stereo partly shown) [I-109],> 10 µM
0.5 to 5 µM,CNC(=O)[C@H](CCCc1ccccc1)NC(=O)C1CN(C(=O)Cc2c[nH]c3cc(Cl)ccc23)CC2CN(C(=O)c3ccc(OC(F)(F)F)c(OC)c3)CC21 (stereo partly shown) [I-82],5 to 10 µM
> 10 µM,CNC(=O)[C@H](CCCc1ccccc1)NC(=O)C1CN(C(=O)c2c[nH]c3c(C)cccc23)CC2CN(C(=O)c3ccc(OC(C)C)c(OC)c3)CC21 (stereo partly shown) [I-191],> 10 µM
> 10 µM,CNC(=O)[C@H](CCCc1ccccc1)NC(=O)C1CN(C(=O)c2cc(Cl)[nH]n2)CC2CN(C(=O)c3ccc(OC(C)C)c(OC)c3)CC21 (stereo partly shown) [I-197],> 10 µM
